Where two headings read alike, the source gives them in different places.
Experiments:
CD-1 mice = format: in vivo; conditions: for Tmax (time at which the maximum response occurred): in vivo, iv
Procedure: In vivo blood pressure was monitored in anaesthetized animals as previously described. A total of 12 wild type male mice were used (n = 3/group) where the groups represented the vehicle (0.9% saline) control, GSNO, SNOPC-2 and SNOPC-6 treatments, respectively. Mean arterial pressure was recorded in anaesthetized mice (2% isoflurane in air) on a homeothermically controlled heating blanket (Harvard Instruments, Edenbridge, UK). A 1.2F microtip pressure catheter (Scisense, Transonic Systems, Ithaca, NY, USA) was inserted into the right carotid artery and basal arterial pressure was recorded for 5 min. Test drug solutions (50 μL containing 500 μmol/L NO ≈ 1 μmol NO/kg body weight) or control (saline) solution were directly injected into the jugular vein using a 30 gauge needle inserted through the underlying muscle. Arterial blood pressure was recorded continuously for a further 5 min following drug administration using a PowerLab data acquisition system and Chart 7 software (ADInstuments, Oxford, UK).

[1] = parameters: species or system mice; conditions: CD-1, mouse, in vivo
Procedure: A total of 48 mice were used (n = 3/group/time point) where the groups represented vehicle (0.9%saline) control, GSNO, SNOPC-2 and SNOPC-6 treatments (n = 3 per group), respectively. A time course study (0, 1, 5 and 15 min) was carried out to characterize the NOx biodistribution after i.n. administration of compounds. Prior to drug administration, mice were anaesthetized by inhaling 2% isoflurane in air via a nose cone. A single volume (20 μL) of test solution in saline (containing 1.25 mmol/L NO ≈ 1 μmol NO/kg body weight) or control (saline) solution was then administered drop wise into the nasal cavity using a micropipette after removing the mouse momentarily from the anaesthetic mask cone and holding it in an upright position. At the appropriate time point animals were exsanguinated by terminal bleed under anaesthesia. Blood and organ samples were collected and processed as described in section 2.4.
Prior to quantification, tissue samples were thawed, weighed and homogenized at 100 mg tissue/mL in phosphate buffered saline (PBS; pH 7.4) using a Silverson model L4RT laboratory homogenizer. Homogenates were centrifuged at 13,000 g for 20 min at 4 °C to remove tissue debris. Whole blood samples were fractionated into plasma (serum + platelets) and blood cells (red and white blood cells) by centrifugation at 1200 g. Cellular blood components were lysed with lysis buffer (5 mmol/L Na o-vanadate, 10 mg/mL benzamidine, 1 mmol/L phenylmethylsulfonyl fluoride (PMSF), 10 mmol/L Tris HCl, 5 mmol/L ethylenediamine tetraacetic acid (EDTA), 50 mmol/L NaCl pH 7.4 and 3.5 mmol/L SDS) at a volume ratio of 1:5 cells: lysis buffer. These samples were centrifuged at 13,000 g for 20 min at 4 °C. Protein content of each sample was quantified using the Bradford assay.
Quantification of total NOx was performed according to a method described by Verdon et al.. Briefly, samples were de-proteinated by mixing the sample with 0.3 mol/L NaOH and aqueous 0.27 mol/L ZnSO4 at a volume ratio of 1:1:2. NOx was determined in 50 μL de-proteinated sample in the form of nitrite using the colorimetric Griess method, [28]. The amount of nitrite in each sample was calculated from a linear calibration curve of known nitrite concentrations (linear range: 1–100 μmol/L) and normalized for total amount of protein (mg), quantified using the Bradford assay. The final concentration, expressed as μM nitrite/mg protein, represents the total NOx in the system. Any remaining nitrite in the infusate (drug solution administered) was not measured as we were more interested in in vivo changes in NOx levels in untreated versus different treated groups at different time points measured but we have previously characterized this.

[2] = CD-1, mouse, in vivo, iv
[3] = parameters: method as in PMID 26686469; conditions: after equilibration of the NO moiety amongst plasma thiols via S-transnitrosylation; cited from earlier work
[4] = cited from earlier work
[5] = inhaled or intranasal, 1 umol/kg
[6] = 10 μmol/L, human plasma and whole blood ex vivo

Tmax (time at which the maximum response occurred) (CD-1 mice; male, CD-1, mouse) [min]	NOx tmax Heart [1] [min]	NOx tmax Liver [1] [min]	NOx tmax Lung [1] [min]	NOx tmax Plasma [1] [min]	NOx tmax Heart [2] [min]	NOx tmax Liver [2] [min]	NOx tmax Lung [2] [min]	NOx tmax Plasma [2] [min]	Molecule	half-life [3]	decomposition within the first 5 min [4, 6] [%]	time to full decomposition [4, 6] [min]	further results
									N[C@@H](CCC(=O)N[C@@H](CSN=O)C(=O)NCC(=O)O)C(=O)O [GSNO, S-nitrosoglutathione]	about 5 min	~85	≤ 15	reduction in blood pressure (CD-1 mice; i.v., 1 μmol NO/kg body weight, CD-1 mice, compared to saline): 30–35%; Tmax (time at which the maximum response occurred) (CD-1 mice; mouse): 0.083 min; NOx tmax Heart [1, 5]: 5 min; NOx tmax Liver [1, 5]: 5 min; NOx tmax Lung [1, 5]: 1 min; NOx tmax Plasma [1, 5]: 5 min; NOx tmax Heart ([2]; 1 umol/kg): 3 min; NOx tmax Liver ([2]; 1 umol/kg): 5 min; NOx tmax Lung ([2]; 1 umol/kg): 1 min; NOx tmax Plasma ([2]; 1 umol/kg): 1 min; Half-life of decomposition [4, 6]: ~2 min
0.083	5	5	1	5	1	3	1	1	N[C@@H](CCC(=O)N[C@@H](CSN=O)C(=O)N[C@@H](CCC(=O)N[C@@H](CSN=O)C(=O)NCC(=O)O)C(=O)O)C(=O)O [SNOPC-2]				
0.083	5	5	1	5	1	5	1	3	N[C@@H](CCC(=O)N[C@@H](CSN=O)C(=O)N[C@@H](CCC(=O)N[C@@H](CSN=O)C(=O)N[C@@H](CCC(=O)N[C@@H](CSN=O)C(=O)N[C@@H](CCC(=O)N[C@@H](CSN=O)C(=O)N[C@@H](CCC(=O)N[C@@H](CSN=O)C(=O)N[C@@H](CCC(=O)N[C@@H](CSN=O)C(=O)NCC(=O)O)C(=O)O)C(=O)O)C(=O)O)C(=O)O)C(=O)O)C(=O)O [SNOPC-6]				
									S-nitrosated cysteine [CySNO]	about 5 min	~85	≤ 15	Half-life of decomposition ([4]; human): approximately 50 s
